Measurements published in patent US6544989B2, “Benzazoles: benzoxazole, benzthiazole and benzimidazole derivatives” (Syngenta Limited, priority 1998, dated 2003).
Read-outs that look alike come from different tables or passages of the source. Marks after values point to notes of the source that are not given here.

Key:
Plasmopara viticola = experiment: Fungicidal test, Plasmopara viticola (PLASVI) on vines, PRCO; assay type: in vivo
Uncinula necator = experiment: Fungicidal test, Uncinula necator (UNCINE) on vines, PRCO; assay type: in vivo; conditions: METHOD 2 (unbanded)
[1] = tested on: Phytophthora infestans lycopersici; assay type: in vivo
Venturia inaequalis = experiment: Fungicidal test, Venturia inaequalis (VENTIN) on apples, PRCO; assay type: in vivo; conditions: METHOD 2 (unbanded)
[2] = tested on: Erysiphe graminis f.sp. tritici; experiment: Fungicidal test, Erysiphe graminis f.sp. tritici (ERYSGT) on wheat, PRCO; assay type: in vivo; conditions: for ERYSGT 1 d Prot/Foir PRCO: METHOD 2 (unbanded); for ERYSGT 6 hr Prot/Foir PRCO: METHOD 1 (values marked *)
Septoria nodorum = experiment: Fungicidal test, Septoria nodorum (LEPTNO) on wheat, PRCO; assay type: in vivo
Puccinia recondita = experiment: Fungicidal test, Puccinia recondita (PUCCRT) on wheat, PRCO; assay type: in vivo
Pyricularia oryzae = assay type: in vivo; conditions: METHOD 2 (unbanded)
Rhizoctonia solani = experiment: Fungicidal test, Rhizoctonia solani (RHIZSO) on rice, PRCO; assay type: in vivo; conditions: METHOD 2 (unbanded)
Musca domestica = conditions: 500 ppm by weight; knockdown assessed 15 minutes after treatment
Description: The activities of individual compounds of formula (I) were determined using a variety of pests. With the exception of nematodes, the pests were treated with a liquid composition containing 500 parts per million (ppm) by weight of a compound unless otherwise stated. Each composition was made by dissolving the compound in an acetone and ethanol (50:50 by volume) mixture and diluting the solution with water containing 0.05% by volume of a wetting agent, SYNPERONIC NP8, until the liquid composition contained the required concentration of the compound.
The test procedure adopted with regard to each pest, except nematodes, was essentially the same and composed supporting a number of the pests on a medium which was usually a substrate, a host plant or a foodstuff on which the pests feed, and treating either or both the medium and the pests with a composition. Pest mortality was assessed usually between three and five days after treatment Knockdown of housefly (Musca domestica) was assessed 15 minutes after treatment

Meloidogyne incognita = experiment: Nematode test, J2 infective juveniles of Meloidogyne incognita, mortality; conditions: 12.5 ppm; J2 infective juveniles suspended in solution; mortality after three days

Structure (SMILES)	PLASVI 1 d Prot/Foir PRCO (Plasmopara viticola; METHOD 2 (unbanded))	UNCINE 1 d Prot/Foir PRCO (Uncinula necator)	PHYTIN 1 d Prot/Foir PRCO ([1]; METHOD 2 (unbanded))	VENTIN 1 d Prot/Foir PRCO (Venturia inaequalis)	ERYSGT 1 d Prot/Foir PRCO [2]	LEPTNO 1 d Prot/Foir PRCO (Septoria nodorum; METHOD 2 (unbanded))	PUCCRT 1 d Prot/Foir PRCO (Puccinia recondita; METHOD 2 (unbanded))	PYRIOR 1 d Prot/Foir PRCO (Pyricularia oryzae)	RHIZSO 1 d Prot/Foir PRCO (Rhizoctonia solani)	MUSCDO AC = Musca domestica (knockdown), score (Musca domestica)	MELGIN = Meloidogyne incognita, grading of mortality (score) (Meloidogyne incognita)	PLASVI 1 d Prot/Foir PRCO (Plasmopara viticola; METHOD 1 (values marked *))	PHYTIN 1 d Prot/Foir PRCO ([1]; METHOD 1 (values marked *))	ERYSGT 6 hr Prot/Foir PRCO [2]	LEPTNO 1 d Prot/Foir PRCO (Septoria nodorum; METHOD 1 (values marked *))	PUCCRT 1 d Prot/Foir PRCO (Puccinia recondita; METHOD 1 (values marked *))
CCC(C)c1nc2cc(CC(=O)Nc3snc(C)c3Cl)ccc2o1 (stereo not drawn) [10(A3)]	87	96	100	40	98	28	100	77	0	5 (5 indicates 40-79% mortality)	0 (0 indicates less than 40% mortality)					
CCC(CC)c1nc2cc(CC(=O)Nc3snc(C)c3Cl)ccc2o1 [13(A3)]	100	100	93	53	100	58	100	96	19	9 (9 indicates 80-100% mortality)	0 (0 indicates less than 40% mortality)					
Cc1nsc(NC(=O)Cc2ccc3oc(CC(C)C)nc3c2)c1Cl [14(A3)]	89	98	100	10	90	28	97	90	12	9 (9 indicates 80-100% mortality)	0 (0 indicates less than 40% mortality)					
Cc1nsc(N(C)C(=O)Cc2ccc3oc(CC(C)(C)C)nc3c2)c1Cl [15(B3)]	79	100	99	5	75	−2	15	69	29	0 (0 indicates less than 40% mortality)	0 (0 indicates less than 40% mortality)					
CC(C)=Cc1nc2cc(CC(=O)Nc3snc(C)c3Cl)ccc2o1 [46(A3)]	99	100		84	97	88	100	92	0	5 (5 indicates 40-79% mortality)	0 (0 indicates less than 40% mortality)					
CC=C(C)c1nc2cc(CC(=O)Nc3snc(C)c3Cl)ccc2o1 [47(A3)]	92	98		37	86	63	99	88	0	0 (0 indicates less than 40% mortality)	0 (0 indicates less than 40% mortality)					
CCSc1nc2cc(CC(=O)Nc3snc(C)c3Cl)ccc2o1 [221(A3)]	84	23	99	25	50	20	99	93	0	9 (9 indicates 80-100% mortality)	0 (0 indicates less than 40% mortality)					
Cc1nsc(NC(=O)Cc2ccc3oc(SC(C)C)nc3c2)c1Cl [223(A3)]	55	30	93	60	73	12	99	63	0	0 (0 indicates less than 40% mortality)	0 (0 indicates less than 40% mortality)					
Cc1nsc(NC(=O)Cc2ccc3oc(SC(C)(C)C)nc3c2)c1Cl [224(A3)]	99	91	100	60	88	16	98	91	0	0 (0 indicates less than 40% mortality)	0 (0 indicates less than 40% mortality)					
Cc1nsc(NC(=O)Cc2ccc3oc(CCc4ccccc4)nc3c2)c1Cl [247(A3)]	62	95	97	−11	61	13	95	85	0	0 (0 indicates less than 40% mortality)	0 (0 indicates less than 40% mortality)					
Cc1nsc(NC(=O)Cc2ccc3oc(-c4ccccc4)nc3c2)c1Cl [248(A3)]		7		100					7	0 (0 indicates less than 40% mortality)	0 (0 indicates less than 40% mortality)	97*	17*	0*	0*	100*
Cc1nsc(NC(=O)Cc2ccc3oc(-c4ccc(C(C)(C)C)cc4)nc3c2)c1Cl [252(A3)]	38	79		−47	30	−13	97	46	0	0 (0 indicates less than 40% mortality)	0 (0 indicates less than 40% mortality)					
Cc1nsc(NC(=O)Cc2ccc3oc(-c4ccc(Cl)cc4Cl)nc3c2)c1Cl [257(A3)]		61		0					11	0 (0 indicates less than 40% mortality)	5 (5 indicates 40-79% mortality)	79*	0*	0*	0*	100*
